In patent publication US11897931B2, “MANP analogues” (Mayo Foundation for Medical Education and Research, priority 2016, dated 2024):
Read-outs that look alike come from different tables or passages of the source. Bridges are numbered along the chain shown (N, C = ends). Where no end group is shown, it is not given here. [ ]: non-standard residue; d: D form.

Tests used:
pGC-A = target: T1, pGC-A (Homo sapiens, UniProt P16066); assay: cGMP generation in HEK293 cells overexpressing pGC-A; assay type: cell-based
T1 construct: host or cells: HEK293
T1 sequence (P16066 33-1061): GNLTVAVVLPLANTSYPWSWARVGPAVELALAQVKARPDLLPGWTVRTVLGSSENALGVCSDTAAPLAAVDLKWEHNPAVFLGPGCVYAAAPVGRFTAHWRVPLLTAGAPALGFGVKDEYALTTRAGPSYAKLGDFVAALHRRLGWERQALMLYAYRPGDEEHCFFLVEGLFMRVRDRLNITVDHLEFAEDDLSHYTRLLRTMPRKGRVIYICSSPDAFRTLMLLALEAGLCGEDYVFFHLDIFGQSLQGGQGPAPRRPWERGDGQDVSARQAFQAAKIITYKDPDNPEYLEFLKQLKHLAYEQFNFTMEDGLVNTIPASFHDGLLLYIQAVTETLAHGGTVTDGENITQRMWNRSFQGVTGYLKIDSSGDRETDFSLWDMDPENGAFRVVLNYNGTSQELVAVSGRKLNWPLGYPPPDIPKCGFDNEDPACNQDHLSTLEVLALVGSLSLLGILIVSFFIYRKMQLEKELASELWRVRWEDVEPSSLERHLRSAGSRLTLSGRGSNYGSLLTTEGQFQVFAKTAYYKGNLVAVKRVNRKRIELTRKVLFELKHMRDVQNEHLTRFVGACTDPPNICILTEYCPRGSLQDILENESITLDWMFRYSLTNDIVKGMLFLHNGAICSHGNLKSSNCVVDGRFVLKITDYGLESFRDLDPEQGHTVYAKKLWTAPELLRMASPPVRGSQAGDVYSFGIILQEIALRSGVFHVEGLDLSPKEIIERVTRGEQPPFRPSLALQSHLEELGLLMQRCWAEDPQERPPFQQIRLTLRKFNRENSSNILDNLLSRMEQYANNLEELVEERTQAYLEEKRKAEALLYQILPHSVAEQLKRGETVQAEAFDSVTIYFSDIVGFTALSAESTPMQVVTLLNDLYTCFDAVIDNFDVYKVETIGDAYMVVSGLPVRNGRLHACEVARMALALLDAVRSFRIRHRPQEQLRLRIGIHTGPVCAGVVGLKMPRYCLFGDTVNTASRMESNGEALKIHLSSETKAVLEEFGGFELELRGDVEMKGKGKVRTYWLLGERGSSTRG
Method: For in vitro studies, five MANP variants were generated that contained substitutions within the N-terminal region. HEK293 cells overexpressing pGC-A were stimulated with MANP or the five variants (10^−8 M), and intracellular cGMP generation was measured.
(§1) Additional in vitro experiments were conducted using an MANP variant having a tryptophan substitution for the leucine at position 2 of MANP (SWLRRSSCFGGRMDRI GAQSGLGCNSFRYRITA REDKQGWA; SEQ ID NO:15). Human pGC-A and pGC-B cDNA clones were purchased from Origene (Rockville, Md.). HEK293 cells were stably transfected with pGC-A or pGC-B cDNA using LIPOFECTAMINE® (Invitrogen; Grand Island, N.Y.). Transfected cells were maintained in Dulbecco's modified Eagle's medium supplemented with 10% fetal bovine serum, 100 U/ml penicillin, 100 […], and 250 ug/ml G418, and were plated in 6-well plates. pGC-A-transfected cells were treated with MANP or MANP2W, while pGC-B-transfected cells were treated with CNP or MANP2W. Cells were incubated in Hank's balanced salt solution (Invitrogen; Carlsbad, Calif.) containing 20 mmol/LN42-hydroxyethyllpiperazine-N′[2-ethanesulfonic acid], 0.1% bovine serum albumin, and 0.5 mmol/L 3-isobutyl-1-methylzanthine (Sigma; St. Louis, Mo.). Treated cells received 10^−6 M, 10^−8 M, or 10^−10 M of MANP, CNP, or MANP2W peptide for 10 minutes. […]

normal canine = assay: In vivo MANP18 infusion study in a normal canine; details: normal dog
Method: FIGS. 5A-5G are graphs plotting the effect of MANP18 on mean arterial pressure (MAP; FIG. 5A), heart rate (FIG. 5B), pulmonary wedge capillary pressure (PWCP; FIG. 5C), cardiac output (FIG. 5D), renal blood flow (FIG. 5E), urine output (UV; FIG. 5F), and urinary sodium excretion (UNaV; FIG. 5G) in a normal dog. After a baseline (BL) clearance, MANP18 was infused with saline for a total of 45 minutes, which included a 15-minute lead-in period followed by a 30-minute clearance. After the peptide infusion was discontinued, and four, 30-minute clearances were performed [washout (Wo), recovery 1 (Rec1), recovery 2 (Rec2), and recovery 3 (Rec3)].
FIGS. 6A-6G are graphs plotting the effect of MANP18 on plasma cGMP levels (FIG. 6A), urinary cGMP excretion (FIG. 6B), plasma ANP levels (FIG. 6C), urinary ANP excretion (FIG. 6D), plasma aldosterone levels (FIG. 6E), plasma renin activity (PRA; FIG. 6F), and plasma angiotensin II levels (ANGII; FIG. 6G) in a normal dog. Experiments were conducted as described for FIGS. 5A-5G).
In vivo infusion studies were conducted using MANP18 in a normal canine. The night before the study, the dog was fasted. On the day of the experiment, the dog was anesthetized with pentobarbital sodium (15 mg/kg IV), intubated, and mechanically ventilated with supplemental oxygen (Harvard Respirator; Amersham, Mass.) at 12 cycles/minute. The femoral artery was cannulated for MAP monitoring and blood sampling, and the femoral vein was cannulated for saline infusion. Through a left lateral flank incision, the left kidney was exposed and the ureter was cannulated for urine sampling. Supplemental nonhypotensive doses of pentobarbital were administered as needed during the study. After 60 minutes of equilibrium, a baseline clearance was performed. All clearances consisted of urine collection over 30 minutes. Arterial blood sampling and hemodynamic measurements were measured midway through each clearance. After the baseline clearance, MANP18 was infused with saline at a dose of 33 pmol peptide/kg/min. The peptide was infused for a total of 45 minutes, which included a 15-minute lead-in period followed by a 30-minute clearance. The peptide infusion was then discontinued, and four 30-minute clearances were performed (washout, recovery 1, recovery 2, and recovery 3).

pGC-B = target: T2, pGC-B (Homo sapiens, UniProt P20594); assay: cGMP generation in HEK293 cells overexpressing pGC-B; assay type: cell-based; details: 10^−6 M, 10^−8 M, or 10^−10 M peptide for 10 minutes, FIG. 7B
T2 construct: host or cells: HEK293
T2 sequence (P20594 23-1047): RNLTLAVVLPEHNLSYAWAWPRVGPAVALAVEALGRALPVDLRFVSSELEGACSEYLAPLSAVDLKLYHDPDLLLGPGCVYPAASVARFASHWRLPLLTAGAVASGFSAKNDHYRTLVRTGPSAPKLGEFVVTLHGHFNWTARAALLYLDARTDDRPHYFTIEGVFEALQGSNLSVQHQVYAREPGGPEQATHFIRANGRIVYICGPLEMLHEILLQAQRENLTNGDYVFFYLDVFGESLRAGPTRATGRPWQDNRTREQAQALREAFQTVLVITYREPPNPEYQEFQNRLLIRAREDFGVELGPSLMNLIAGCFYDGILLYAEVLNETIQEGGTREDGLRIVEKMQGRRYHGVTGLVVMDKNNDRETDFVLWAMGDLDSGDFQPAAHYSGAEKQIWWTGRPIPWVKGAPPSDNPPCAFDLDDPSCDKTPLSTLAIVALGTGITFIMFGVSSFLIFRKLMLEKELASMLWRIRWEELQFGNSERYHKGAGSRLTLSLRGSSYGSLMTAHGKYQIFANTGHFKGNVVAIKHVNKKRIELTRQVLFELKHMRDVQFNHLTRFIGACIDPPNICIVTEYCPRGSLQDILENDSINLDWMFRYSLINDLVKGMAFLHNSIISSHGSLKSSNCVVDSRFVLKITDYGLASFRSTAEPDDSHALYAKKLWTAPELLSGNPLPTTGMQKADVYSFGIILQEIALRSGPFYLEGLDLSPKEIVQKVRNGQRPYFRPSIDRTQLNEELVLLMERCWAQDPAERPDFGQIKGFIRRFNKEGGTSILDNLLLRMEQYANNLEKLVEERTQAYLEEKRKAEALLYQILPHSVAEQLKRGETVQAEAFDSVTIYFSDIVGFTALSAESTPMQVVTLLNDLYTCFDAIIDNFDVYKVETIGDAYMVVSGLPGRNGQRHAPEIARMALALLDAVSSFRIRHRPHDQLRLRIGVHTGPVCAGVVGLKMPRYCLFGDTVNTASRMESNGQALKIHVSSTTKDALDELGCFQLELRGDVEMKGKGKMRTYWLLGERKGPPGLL
Method: as §1, with “minutes. After treatment, the cells were lysed in 300 ul 6% ice cold TCA and sonicated for 10 minutes, and the cell lysates were then centrifuged at 4° C., 12,000 g for 10 minutes.” for “minutes.”

normal dogs = details: cited from earlier work
[1] = test system: Spontaneously hypertensive rats (SHRs); assay: Acute IV MANP in spontaneously hypertensive rats: BP, plasma and urinary cGMP, natriuresis; assay type: in vivo, rat; details: acute IV administration
Method: FIGS. 2A-2E are a series of graphs plotting the effect of MANP, administered intravenously at the indicated doses, on mean arterial pressure (FIG. 2A), cGMP levels in plasma (FIG. 2B) and urine (FIG. 2C), distal tubule sodium reabsorption (FIG. 2D), and urinary sodium excretion (FIG. 2E) in spontaneously hypertensive rats.
Spontaneously hypertensive rats (SHRs) were injected with intravenous (IV) MANP or vehicle, and BP, plasma and urinary cGMP, and natriuretic effects were determined.

[2] = infusion of a high dose, compared to high dose of ANP

In the case of “SLRRSSDformCFGGRMDRIGAQSGLGCNSFRYRITAREDKQGWA (SLRRS[dS]CFGGRMDRIGAQSGLGCNSFRYRITAREDKQGWA; disulfide 7-23 (inferred)) [MANP18, MANP with D-serine at the sixth position]”, the “Potency vs. MANP” value (pGC-A; intracellular cGMP generation, peptide 10^−8 M, HEK293 overexpressing pGC-A) is reported as “=”, the “blood pressure (mean arterial pressure)” value (normal canine; 33 pmol peptide/kg/min infused 45 minutes, FIG. 5A) is reported as “blood pressure lowering” and the cardiac output (normal canine; 33 pmol peptide/kg/min infused 45 minutes, FIG. 5D) is reported as “cardiac output enhancing”. The “natriuretic action (urinary sodium excretion)” value (normal canine; 33 pmol peptide/kg/min infused 45 minutes, FIG. 5G) was “natriuretic actions”, the plasma aldosterone levels (normal canine; 33 pmol peptide/kg/min, FIG. 6E) was “temporarily depressed” and the “plasma renin activity (PRA)” value (normal canine; 33 pmol peptide/kg/min, FIG. 6F) was “temporarily depressed”. For the same substance, the “plasma angiotensin II levels (ANGII)” value (normal canine; 33 pmol peptide/kg/min, FIG. 6G) was “temporarily depressed”, the “cGMP (plasma cGMP levels, urinary cGMP excretion)” value (normal canine; 33 pmol peptide/kg/min, FIGS. 6A and 6B) was “activated cGMP” and the “ANP levels (plasma ANP, urinary ANP excretion)” value (normal canine; 33 pmol peptide/kg/min, FIGS. 6C and 6D) was “temporarily increased”.
In the case of “SWLRRSSCFGGRMDRI GAQSGLGCNSFRYRITA REDKQGWA (SWLRRSSCFGGRMDRIGAQSGLGCNSFRYRITAREDKQGWA) [MANP2W, MANP variant having a tryptophan substitution for the leucine at position 2 of MANP]”, the “pGC-B activation (cGMP generation)” value (pGC-B) is reported as “did not activate pGC-B” and the “pGC-A activation (cGMP generation)” value (pGC-A; 10^−6 M, 10^−8 M, or 10^−10 M peptide for 10 minutes, FIG. 7A) is reported as “selectively activated pGC-A”.
In the case of “SLRRSSCFGGRMDRIGAQSGLGCNSFRY (listed as Homo sapiens) [ANP, endogenous human mature atrial natriuretic peptide]”, the “glomerular filtration rate (GFR)” value (normal dogs; infusion of a low dose) is listed as “No change” and the “mean arterial pressure (MAP)” value (normal dogs; infusion of a low dose) is listed as “No change”.
With “SLRRSSCFGGRMDRIGAQSGLGCNSFRYRITAREDKQGWA (listed as Homo sapiens) [MANP]” the “BP (mean arterial pressure)” value ([1]; FIG. 2A) was “reduced BP”, the “plasma cGMP generation” value ([1]; FIG. 2B) was “increased” and the “urinary cGMP generation” value ([1]; FIG. 2C) was “increased”. For the same substance, the “natriuresis (distal tubule sodium reabsorption, urinary sodium excretion)” value ([1]; FIGS. 2D and 2E) was “induced natriuresis”, the “diuretic and natriuretic effects compared with ANP” value (normal dogs) was “greater diuretic and natriuretic effects than ANP” and the “glomerular filtration rate (GFR)” value (normal dogs; [2]) was “increased GFR”. For the same substance, the “mean arterial pressure (MAP)” value (normal dogs; [2]) was “decreased MAP”, the “glomerular filtration rate (GFR)” value (normal dogs; infusion of a low dose) was “No change” and the “mean arterial pressure (MAP)” value (normal dogs; infusion of a low dose) was “No change”. The “effect on renal blood flow compared with ANP” value (normal dogs; low dose) was “greater effect than low dose ANP”.
